Measured values from US20100234390A1, “NOVEL COMPOUND AND THEIR USE” (priority 2007, published 2010).

Tests used:
Assay in all cases: Agar dilution MIC
Details in all cases: 35° C., 16-20 hours
[1] = tested on: E. faecium ATCC 700221; assay type: cell-based, Enterococcus faecium
Description: (§1) Briefly, the compounds of invention were weighed, dissolved in dimethyl sulfoxide, serially two fold diluted in the same solvent and then incorporated into molten Mueller Hinton Agar (MHA) in a petridish just before solidification, with each petridish containing a different concentration of a compound.
(§2) The bacterial inoculum was prepared by picking 3 to 5 well isolated bacterial colonies with the same morphological appearance from an 18-24 hours old culture with an inoculating loop, transferring the growth to a tube containing 3 mL of normal saline and adjusting the turbidity of the saline suspension to 0.5 Mc Farland Turbidity Standard equivalent to a bacterial population of 1.5×10^8 colony forming units (CFU) per mL of suspension. The suspension was diluted 1:10 in saline (i.e. 0.5 mL suspension 4.5 mL saline) to get a bacterial population of 1.5×10^7 CFU/mL as inoculum.
(§3) The inoculated petridishes were incubated at 35° C. in an ambient atmosphere for 16-20 hours.

[2] = tested on: E. faecium MRO 04037; assay type: cell-based, Enterococcus faecium
Description: as §1, §2, §3

[3] = tested on: E. faecium MRO 04198; assay type: cell-based, Enterococcus faecium
Description: as §1, §2, §3

[4] = tested on: E. faecium MRO 04038; assay type: cell-based, Enterococcus faecium
Description: as §1, §2, §3

[5] = tested on: M. catarrhalis ATCC 43628; assay type: cell-based, Moraxella catarrhalis
Description: as §1, §2, §3

[6] = tested on: M. catarrhalis ATCC 43627; assay type: cell-based, Moraxella catarrhalis
Description: as §1, §2, §3

[7] = tested on: M. catarrhalis ATCC 43617; assay type: cell-based, Moraxella catarrhalis
Description: as §1, §2, §3

[8] = tested on: S. epidermidis MRO 002046; assay type: cell-based
Description: as §1, §2, §3

[9] = tested on: S. epidermidis MRO 02002; assay type: cell-based
Description: as §1, §2, §3

[10] = tested on: S. epidermidis MRO 02045; assay type: cell-based
Description: as §1, §2, §3

[11] = tested on: S. epidermidis MRO 02095; assay type: cell-based
Description: as §1, §2, §3

[12] = tested on: S. haemolyticus MRO 02064; assay type: cell-based
Description: as §1, §2, §3

[13] = tested on: S. saprophyticus MRO 02003; assay type: cell-based
Description: as §1, §2, §3

[14] = tested on: E. faecalis ATCC 51299; assay type: cell-based, Enterococcus faecalis
Description: as §1, §2, §3

[15] = tested on: E. faecalis MRO 04205; assay type: cell-based, Enterococcus faecalis
Description: as §1, §2, §3

[16] = tested on: E. faecalis MRO 04050; assay type: cell-based, Enterococcus faecalis
Description: as §1, §2, §3

[17] = tested on: E. faecalis ATCC 29212; assay type: cell-based, Enterococcus faecalis
Description: as §1, §2, §3

[18] = tested on: E. faecalis MRO 04035; assay type: cell-based, Enterococcus faecalis
Description: as §1, §2, §3

[19] = tested on: S. aureus MRO 00013; assay type: cell-based, Staphylococcus aureus
Description: as §1, §2, §3

[20] = tested on: S. aureus MRO 00048; assay type: cell-based, Staphylococcus aureus
Description: as §1, §2, §3

[21] = tested on: S. aureus MRO 00059; assay type: cell-based, Staphylococcus aureus
Description: as §1, §2, §3

[22] = tested on: S. aureus ATCC 43300; assay type: cell-based, Staphylococcus aureus
Description: as §1, §2, §3

[23] = tested on: S. aureus MRO 0001; assay type: cell-based, Staphylococcus aureus
Description: as §1, §2, §3

[24] = tested on: S. aureus MRO 002053; assay type: cell-based, Staphylococcus aureus
Description: as §1, §2, §3

[25] = tested on: S. aureus ATCC 29213; assay type: cell-based, Staphylococcus aureus
Description: as §1, §2, §3

[26] = tested on: S. aureus MRO 00030; assay type: cell-based, Staphylococcus aureus
Description: as §1, §2, §3

[27] = tested on: S. aureus MRO 0003; assay type: cell-based, Staphylococcus aureus
Description: as §1, §2, §3

[28] = tested on: S. aureus MRO 00055; assay type: cell-based, Staphylococcus aureus
Description: as §1, §2, §3

SMILES | Antimicrobial Screening (MIC) [1] [µg/mL] | Antimicrobial Screening (MIC) [2] [µg/mL] | Antimicrobial Screening (MIC) [3] [µg/mL] | Antimicrobial Screening (MIC) [4] [µg/mL] | Antimicrobial Screening (MIC) [5] [µg/mL] | Antimicrobial Screening (MIC) [6] [µg/mL] | Antimicrobial Screening (MIC) [7] [µg/mL] | Antimicrobial Screening (MIC) [8] [µg/mL] | Antimicrobial Screening (MIC) [9] [µg/mL] | Antimicrobial Screening (MIC) [10] [µg/mL] | Antimicrobial Screening (MIC) [11] [µg/mL] | Antimicrobial Screening (MIC) [12] [µg/mL] | Antimicrobial Screening (MIC) [13] [µg/mL] | Antimicrobial Screening (MIC) [14] [µg/mL] | Antimicrobial Screening (MIC) [15] [µg/mL] | Antimicrobial Screening (MIC) [16] [µg/mL] | Antimicrobial Screening (MIC) [17] [µg/mL] | Antimicrobial Screening (MIC) [18] [µg/mL] | Antimicrobial Screening (MIC) [19] [µg/mL] | Antimicrobial Screening (MIC) [20] [µg/mL] | also measured
COC(=S)NC[C@H]1CN(c2ccc(N3CCN(C(=O)c4cccnc4)CC3)c(F)c2)C(=O)O1 [Example 2, (S)—O-Methyl(3-(3-fluoro-4-(4-nicotinoylpiperazin-1-yl)phenyl)-2-oxooxazolidin-5-yl)methylcarbamothioate] | 0.5 | 0.5 | 0.5 | 0.5 | 4 | 4 | 1 | 1 | 1 | 1 | 1 | 1 | 1 | 0.5 | 0.5 | 1 | 1 | 0.5 | 1 | 0.5 | Antimicrobial Screening (MIC) [21]: 1 µg/mL; Antimicrobial Screening (MIC) [22]: 1 µg/mL; Antimicrobial Screening (MIC) [23]: 0.5 µg/mL; Antimicrobial Screening (MIC) [24]: 1 µg/mL; Antimicrobial Screening (MIC) [25]: 1 µg/mL; Antimicrobial Screening (MIC) [26]: 1 µg/mL; Antimicrobial Screening (MIC) [27]: 1 µg/mL; Antimicrobial Screening (MIC) [28]: 1 µg/mL
COC(=S)NC[C@H]1CN(c2ccc(N3CCN(C(=O)c4ccc([N+](=O)[O-])o4)CC3)c(F)c2)C(=O)O1 [Example 7, (S)—O-Methyl(3-(3-fluoro-4-(4-(5-nitrofuran-2-carbonyl)piperazin-1-yl)phenyl)-2-oxooxazolidin-5-yl)methylcarbamothioate] | 0.125 | 0.25 | 0.25 | 0.125 | 0.25 | 0.25 | 0.25 | 0.03 | 0.03 | 0.125 | 0.03 | 0.125 | 0.125 | 0.125 | 0.125 | 0.125 | 0.125 | 0.125 | 0.25 | 0.125 | Antimicrobial Screening (MIC) [21]: 0.25 µg/mL; Antimicrobial Screening (MIC) [22]: 0.125 µg/mL; Antimicrobial Screening (MIC) [23]: 0.125 µg/mL; Antimicrobial Screening (MIC) [24]: 0.06 µg/mL; Antimicrobial Screening (MIC) [25]: 0.125 µg/mL; Antimicrobial Screening (MIC) [26]: 0.125 µg/mL; Antimicrobial Screening (MIC) [27]: 0.25 µg/mL; Antimicrobial Screening (MIC) [28]: 0.25 µg/mL
COC(=S)NC[C@H]1CN(c2ccc(N3CCN(C(=O)c4ccc(N)nc4)CC3)c(F)c2)C(=O)O1 [Example 37, (S)—O-Methyl(3-(4-(4-(6-aminonicotinoyl)piperazin-1-yl)-3-fluorophenyl)-2-oxooxazolidin-5-yl)methylcarbamothioate] | 0.25 | 0.25 | 0.25 | 0.25 | 1 | 2 | 1 | 0.5 | 0.5 | 0.25 | 0.5 | 0.25 | 0.5 | 0.25 | 0.25 | 0.25 | 0.25 | 0.25 | 0.5 | 0.25 | Antimicrobial Screening (MIC) [21]: 0.5 µg/mL; Antimicrobial Screening (MIC) [22]: 0.5 µg/mL; Antimicrobial Screening (MIC) [23]: 0.25 µg/mL; Antimicrobial Screening (MIC) [24]: 0.25 µg/mL; Antimicrobial Screening (MIC) [25]: 0.5 µg/mL; Antimicrobial Screening (MIC) [26]: 0.5 µg/mL; Antimicrobial Screening (MIC) [27]: 0.5 µg/mL; Antimicrobial Screening (MIC) [28]: 0.5 µg/mL
COC(=S)NC[C@H]1CN(c2ccc(N3CCN(C(=O)C=Cc4ccc([N+](=O)[O-])o4)CC3)c(F)c2)C(=O)O1 [Example 40, (S)—O-Methyl(3-(3-fluoro-4-(4-(3-(5-nitrofuran-2-yl)acryloyl)piperazin-1-yl)phenyl)-2-oxooxazolidin-5-yl)methylcarbamothioate] | 0.125 | 0.25 | 0.25 | 0.25 | 0.125 | 0.125 | 0.06 | <0.03 | 0.125 | <0.03 | 0.06 | 0.125 | 0.06 | 0.25 | 0.25 | 0.25 | 0.25 | 0.25 | 0.25 | 0.25 | Antimicrobial Screening (MIC) [21]: 0.25 µg/mL; Antimicrobial Screening (MIC) [22]: 0.125 µg/mL; Antimicrobial Screening (MIC) [23]: 0.25 µg/mL; Antimicrobial Screening (MIC) [24]: 0.06 µg/mL; Antimicrobial Screening (MIC) [25]: 0.25 µg/mL; Antimicrobial Screening (MIC) [26]: 0.125 µg/mL; Antimicrobial Screening (MIC) [27]: 0.25 µg/mL; Antimicrobial Screening (MIC) [28]: 0.25 µg/mL
